Test results published in PubChem BioAssay AID1745844 (Carcinogenic Potency Database (CPDB), 2022).

System: rodent lifetime carcinogenesis bioassay, tumor incidence TD50
Test: carcinogenic potency in animals, long-term in vivo studies, CPDB compilation (AID 1745844)
Conditions: mouse, strain Swiss albino, by gavage, dosed 53 weeks

CC(C)C/C=N/N(C)C=O
TD50 (females, site: gall bladder, lesion: adenocarcinoma, study length 127 weeks): 151 mg/kg/day | TD50 (females, site: gall bladder, lesion: adenoma, study length 127 weeks): 36.5 mg/kg/day | TD50 (females, site: gall bladder, lesion: several types, types named in the paper, study length 127 weeks): 28.9 mg/kg/day | TD50 (females, site: liver, lesion: hepatocellular carcinoma, study length 127 weeks): 74.6 mg/kg/day | TD50 (females, site: liver, lesion: hepatoma, study length 127 weeks): 9.27 mg/kg/day | TD50 (females, site: liver, lesion: several types, types named in the paper, study length 127 weeks): 7.9 mg/kg/day | TD50 (females, site: lung, lesion: adenocarcinoma, study length 127 weeks): 8.7 mg/kg/day | TD50 (females, site: lung, lesion: adenoma, study length 127 weeks): 2.39 mg/kg/day | TD50 (females, site: lung, lesion: several types, types named in the paper, study length 127 weeks): 1.99 mg/kg/day | TD50 (males, site: gall bladder, lesion: adenoma, study length 119 weeks): 46.1 mg/kg/day | TD50 (males, site: liver, lesion: hepatocellular carcinoma, study length 119 weeks): 34.2 mg/kg/day | TD50 (males, site: liver, lesion: hepatoma, study length 119 weeks): 8 mg/kg/day | TD50 (males, site: liver, lesion: several types, types named in the paper, study length 119 weeks): 5.97 mg/kg/day | TD50 (males, site: lung, lesion: adenocarcinoma, study length 119 weeks): 10.7 mg/kg/day | TD50 (males, site: lung, lesion: adenoma, study length 119 weeks): 3.3 mg/kg/day | TD50 (males, site: lung, lesion: several types, types named in the paper, study length 119 weeks): 2.53 mg/kg/day | TD50 (males, site: preputial gland, lesion: several types, types named in the paper, study length 119 weeks): 4.36 mg/kg/day | TD50 (males, site: preputial gland, lesion: squamous-cell carcinoma, study length 119 weeks): 5.59 mg/kg/day | TD50 (males, site: preputial gland, lesion: squamous-cell papilloma, study length 119 weeks): 34.2 mg/kg/day
